Read-outs that look alike come from different tables or passages of the source.
How the values were obtained:
BLM = biological target: T1, BLM (Homo sapiens, UniProt P54132); assay: RecQ selectivity ATPase assay; type: biochemical
T1 construct: human BLM-D1D2RH (UniProt P54132: Lys640–Gly1298); His tag (N, cleaved yes); made in house; host or cells: E. coli BL21(DE3)
Procedure: (§1) DNA sequence allowing expression of human BLM-D1D2RH (UniProt P54132: Lys640–Gly1298) fused at the amino-terminal end to His tag followed by TEV-cleavage site, was inserted into a pET-derived vector. Protein expression was performed in BL21(DE3) cells after IPTG induction. Cells were collected and resuspended in lysis buffer (50 mM NaH2PO4, 300 mM NaCl, 1 mM TCEP, 20 mM imidazole, pH 8.0) supplemented with 2 mM MgCl2, benzonase and 0.5 mM AEBSF. Cells were lysed with an Emulsiflex C3 homogenizer. After ultracentrifugation, the lysate was loaded onto a HisTrap HP column. Bound protein was eluted with an imidazole gradient in lysis buffer. The amino-terminal tag was cleaved with TEV protease. Cleaved protein was loaded on Resource S ion-exchange column and eluted with a NaCl gradient in IEX buffer (20 mM Tris, 1 mM TCEP, 10% glycerol, 20 mM NaCl, pH 7.4). As a final step, BLM-D1D2RH protein was concentrated and loaded onto the Superdex 75 gel-filtration column pre-equilibrated with SEC buffer (50 mM Tris, 150 mM NaCl, 10% glycerol, pH 7.4). Eluted target protein was concentrated and frozen on dry ice. An analogous procedure was used for the expression and purification of human RecQ1-D1D2 (UniProt: P46063, Asp62–Ser482) and Human RecQ5-D1D2 (UniProt: O94762, Asp11–Trp453) proteins.
(§2) We used an ADP-Glo assay kit (Promega) to monitor ATP hydrolysis. A 45-oligonucleotide with the following sequence: […], referred to as FLAP26, as described previously[45] was purchased from IDT (Integrated DNA Technologies) and used as a DNA substrate. […] The reaction was started by addition of 2.5 μl of ssDNA substrate at 0.4 nM and incubated for 30 min at room temperature. The reaction was stopped with the addition of 5 μl of the first ADP-Glo reagent and incubated for 1 h to remove the excess amount of ATP. Then, 10 μl of ATP detection reagent was added and incubated for an additional hour before reading. The luminescence output was recorded using the Pherastar reader, with a 5 min delay before reading. Each concentration of compounds was tested in duplicates in the assay plate. The compound potency (IC50 value) was determined using custom software (Novartis Helios software application) with a four-parameter sigmoid Hill-curve model. After normalization of activity values for the wells to percentage inhibition (percentage inhibition = [(high control activity − sample activity)/(high control activity − low control activity)] × 100), IC50 fitting was performed from the duplicate determinations present on each plate.
(§3) The same ATPase assay protocol was used with the three other RecQ protein constructs to assess the selectivity over WRN. Time-course experiments were performed to determine the best enzymatic assay conditions for each RecQ protein. The experiments were run as described above with 10 nM RecQ1 protein construct with 10 nM ssDNA substrate, 2 nM BLM protein construct with 0.2 nM ssDNA substrate and 0.5 nM RecQ5 protein construct with 2 nM ssDNA substrate, respectively.

RecQ1 = biological target: T2, RecQ1 (Homo sapiens, UniProt P46063); assay: RecQ selectivity ATPase assay; type: biochemical
T2 construct: human RecQ1-D1D2 (UniProt: P46063, Asp62–Ser482); His tag (N); made in house; host or cells: E. coli BL21(DE3), by the 'analogous procedure'
Procedure: as §1, §2, §3

RecQ5 = biological target: T3, RecQ5 (Homo sapiens, UniProt O94762); assay: RecQ selectivity ATPase assay; type: biochemical
T3 construct: Human RecQ5-D1D2 (UniProt: O94762, Asp11–Trp453); His tag (N); made in house; host or cells: E. coli BL21(DE3), by the 'analogous procedure'
Procedure: as §1, §2, §3

[1] = CL in vivo, intravenous bolus; conditions: whole blood
Procedure: PK parameters were determined by non-compartmental analysis. Intravenous bolus studies in mouse, rat and dog were performed at 1, 1 and 0.1 mg per kg respectively (Extended Data Table 1).

Mouse unbound fraction = type: in vitro ADME; conditions: blood
SNU407 = assay: CFA 10-14 day clonogenic assay; type: cell-based; conditions: Homo sapiens, SNU-407
KM12 [2] = assay: CFA 10-14 day clonogenic assay; type: cell-based; conditions: Homo sapiens
HEC108 = assay: CFA 10-14 day clonogenic assay; type: cell-based; conditions: Homo sapiens
CAL33 = assay: CFA 10-14 day clonogenic assay; type: cell-based; conditions: Homo sapiens, CAL-33
EN [3] = assay: CFA 10-14 day clonogenic assay; type: cell-based; conditions: Homo sapiens
SNU1 = assay: CFA 10-14 day clonogenic assay; type: cell-based; conditions: Homo sapiens
SNUC2A = assay: 4 day proliferation assay (CellTiter-Glo)
JHUEM1 = assay: 4 day proliferation assay (CellTiter-Glo); conditions: Homo sapiens, 96 h, read-out: 4 day assay GI50
CL34 = assay: 4 day proliferation assay (CellTiter-Glo); conditions: Homo sapiens, 96 h, read-out: 4 day assay GI50
CW2 = assay: 4 day proliferation assay (CellTiter-Glo); conditions: Homo sapiens, CW-2, 96 h, read-out: 4 day assay GI50
KM12 [4] = assay: 4 day proliferation assay (CellTiter-Glo); conditions: Homo sapiens, KM12, 96 h, read-out: 4 day assay GI50
SNU520 = assay: 4 day proliferation assay (CellTiter-Glo); conditions: Homo sapiens, 96 h, read-out: 4 day assay GI50
SNGM = assay: 4 day proliferation assay (CellTiter-Glo); conditions: Homo sapiens, 96 h, read-out: 4 day assay GI50
EN [5] = assay: 4 day proliferation assay (CellTiter-Glo); conditions: Homo sapiens, 96 h, read-out: 4 day assay GI50
HEC1A = assay: 4 day proliferation assay (CellTiter-Glo); conditions: Homo sapiens, HEC-1-A, 96 h, read-out: 4 day assay GI50
HEC1B = assay: 4 day proliferation assay (CellTiter-Glo); conditions: Homo sapiens, HEC-1B, 96 h, read-out: 4 day assay GI50

T1 sequence (P54132 640-1298): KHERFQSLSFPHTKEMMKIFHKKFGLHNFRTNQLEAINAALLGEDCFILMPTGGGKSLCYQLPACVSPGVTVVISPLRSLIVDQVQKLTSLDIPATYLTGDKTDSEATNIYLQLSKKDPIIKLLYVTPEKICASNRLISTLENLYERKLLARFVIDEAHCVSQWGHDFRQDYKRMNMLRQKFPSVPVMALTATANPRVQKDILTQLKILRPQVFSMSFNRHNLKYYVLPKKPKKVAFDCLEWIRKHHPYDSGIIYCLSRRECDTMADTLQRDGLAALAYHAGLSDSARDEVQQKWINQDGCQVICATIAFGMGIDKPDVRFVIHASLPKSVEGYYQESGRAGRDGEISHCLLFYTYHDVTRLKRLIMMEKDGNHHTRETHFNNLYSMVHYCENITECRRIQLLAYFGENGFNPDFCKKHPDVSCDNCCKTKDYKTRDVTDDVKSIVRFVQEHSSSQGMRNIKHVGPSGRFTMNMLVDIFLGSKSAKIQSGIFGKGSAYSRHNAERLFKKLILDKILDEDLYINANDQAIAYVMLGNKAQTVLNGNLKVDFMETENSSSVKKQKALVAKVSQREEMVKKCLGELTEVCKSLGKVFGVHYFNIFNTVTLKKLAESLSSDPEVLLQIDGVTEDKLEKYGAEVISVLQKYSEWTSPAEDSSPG
T2 sequence (P46063 62-482): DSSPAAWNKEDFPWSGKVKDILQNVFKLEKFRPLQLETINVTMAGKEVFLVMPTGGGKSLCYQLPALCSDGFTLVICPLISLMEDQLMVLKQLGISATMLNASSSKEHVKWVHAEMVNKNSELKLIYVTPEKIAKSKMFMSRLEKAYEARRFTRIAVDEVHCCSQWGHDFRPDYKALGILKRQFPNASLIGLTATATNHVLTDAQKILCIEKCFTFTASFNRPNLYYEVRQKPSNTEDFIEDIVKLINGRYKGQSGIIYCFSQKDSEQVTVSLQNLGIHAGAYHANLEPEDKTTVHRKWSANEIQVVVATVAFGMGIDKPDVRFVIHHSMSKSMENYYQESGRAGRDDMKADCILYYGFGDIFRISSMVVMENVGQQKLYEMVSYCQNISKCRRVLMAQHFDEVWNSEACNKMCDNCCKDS
T3 sequence (O94762 11-453): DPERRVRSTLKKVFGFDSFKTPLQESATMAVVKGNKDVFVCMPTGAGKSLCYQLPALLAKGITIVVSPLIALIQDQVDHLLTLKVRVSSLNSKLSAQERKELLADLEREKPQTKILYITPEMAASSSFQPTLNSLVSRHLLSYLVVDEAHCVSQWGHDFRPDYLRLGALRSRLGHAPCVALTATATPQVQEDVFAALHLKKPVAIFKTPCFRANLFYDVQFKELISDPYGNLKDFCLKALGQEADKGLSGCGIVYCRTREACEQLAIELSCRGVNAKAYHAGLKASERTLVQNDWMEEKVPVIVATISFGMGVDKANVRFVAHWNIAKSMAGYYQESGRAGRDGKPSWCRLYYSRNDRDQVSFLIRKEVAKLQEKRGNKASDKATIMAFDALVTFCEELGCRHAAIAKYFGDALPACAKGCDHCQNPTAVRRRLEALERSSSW

CCc1c(N2CCN(C(=O)c3ncnc(C)c3O)CC2)c(=O)n2nc(C3=CCOCC3)nc2n1CC(=O)Nc1ccc(C(F)(F)F)cc1Cl [HRO761]
IC50 (BLM): > 100000 nM
IC50 (RecQ1): > 100000 nM
IC50 (RecQ5): > 100000 nM
clearance ([1]; 0.1 mg/kg, dog, intravenous bolus 0.1 mg per kg): 4.3 mL/min/kg
clearance ([1]; 1 mg/kg, mouse, intravenous bolus 1 mg per kg): 29 mL/min/kg
clearance ([1]; 1 mg/kg, rat, intravenous bolus 1 mg per kg): 5.3 mL/min/kg
fraction unbound (Mouse unbound fraction): 0.193
GI50 (SNU407): 25 nM
GI50 (KM12 [2]): 100 nM
GI50 (HEC108): 104 nM
GI50 (CAL33): ≥ 10000 nM
GI50 (EN [3]): ≥ 10000 nM
GI50 (SNU1): ≥ 10000 nM
GI50 (SNUC2A; Homo sapiens, 96 h, read-out: 4 day assay GI50, SNUC2A): 641 nM
GI50 (SNUC2A; read-out: 4 day assay GI50, SNUC2A): 542 nM
GI50 (JHUEM1): 946 nM
GI50 (CL34): 231 nM
GI50 (CW2): 112 nM
GI50 (KM12 [4]): 1380 nM
GI50 (SNU520): ≥ 10000 nM
GI50 (SNGM): ≥ 10000 nM
GI50 (EN [5]): ≥ 10000 nM
GI50 (HEC1A): ≥ 10000 nM
GI50 (HEC1B): ≥ 10000 nM

Reference: publication PMC11078746 (Nature, 2024)
